Experiment [1] has as its target Cyclin-dependent kinase 4/cyclin D (Homo sapiens, UniProt P11802). Kind of experiment: Inhibition of Cyclin-dependent kinase 4-cyclin D. Type of experiment: protein-complex assay.
In experiment [2] the target is Cyclin-dependent kinase 1/cyclin B (Homo sapiens, UniProt P06493). Nature of the experiment: Inhibition of Cyclin-dependent kinase 1-cyclin B. The experiment is classed as protein-complex assay.
Experiment [3] has as its target Fibroblast growth factor receptor (Homo sapiens, UniProt P22607+P11362+P22455+P21802). Nature of the experiment: Inhibition of Fibroblast growth factor receptor (FGFr). The experiment is classed as protein assay.
In another experiment the test system is HCT-116. Nature of the experiment: Inhibition of HCT116 human colon carcinoma cell proliferation. The experiment is classed as functional, cell-based.
The target of experiment [4] is Cyclin-dependent kinase 2/cyclin E (Homo sapiens, UniProt P24941). Nature of the experiment: Inhibition of Cyclin-dependent kinase 2-cyclin E. Type of experiment: protein-complex assay.
For experiment [5], the target named is Cyclin-dependent kinase 2/cyclin A (Homo sapiens, UniProt P24941). Kind of experiment: Inhibition of Cyclin-dependent kinase 2-cyclin A. The experiment is classed as protein-complex assay.
The target of experiment [6] is Proto-oncogene tyrosine-protein kinase Src (Homo sapiens, UniProt P12931). Nature of the experiment: Inhibition of c-Src tyrosine kinase.
Chain of Proto-oncogene tyrosine-protein kinase Src (P12931 2-536 limits assumed): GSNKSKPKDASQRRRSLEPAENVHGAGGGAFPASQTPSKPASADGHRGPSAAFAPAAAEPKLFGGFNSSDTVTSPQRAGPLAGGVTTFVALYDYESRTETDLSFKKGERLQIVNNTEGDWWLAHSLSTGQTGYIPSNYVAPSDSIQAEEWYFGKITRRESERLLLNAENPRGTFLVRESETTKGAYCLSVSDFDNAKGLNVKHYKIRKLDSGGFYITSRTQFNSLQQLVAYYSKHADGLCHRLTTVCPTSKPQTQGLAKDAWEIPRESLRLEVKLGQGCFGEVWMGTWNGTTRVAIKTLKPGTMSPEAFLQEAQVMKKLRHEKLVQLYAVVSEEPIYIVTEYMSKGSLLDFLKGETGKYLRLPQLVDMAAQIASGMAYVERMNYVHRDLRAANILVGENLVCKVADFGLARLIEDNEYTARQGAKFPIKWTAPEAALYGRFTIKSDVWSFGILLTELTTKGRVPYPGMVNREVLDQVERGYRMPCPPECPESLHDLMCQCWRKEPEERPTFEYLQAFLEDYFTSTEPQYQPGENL

The structures appear in SMILES notation.

The IC50 is the midpoint of a concentration-inhibition curve.

For `CN1CCN(c2ccc(Nc3ncc4ccc(=O)n(C5CC6CCC5C6)c4n3)cc2)CC1` (stereo not drawn), 6 nM corresponded to half-maximal inhibition in experiment [1] (IC50).

`CCn1c(=O)ccc2cnc(Nc3ccc(N4CCC(CCCO)CC4)cc3)nc21`: the IC50 in experiment [1] is 900 nM. Compared with the last compound, the IC50 is about 150-fold higher.

As for `COC(=O)Cn1c(=O)ccc2cnc(Nc3ccccc3)nc21`, half-maximal inhibition in experiment [1] (IC50) was put at 31000 nM.

On to `CCCCn1c(=O)ccc2cnc(Nc3ccccc3)nc21`, for which the IC50 is 2000 nM in experiment [2] and 5290 nM in experiment [3].

Compound `CCCn1c(=O)ccc2cnc(Nc3ccccc3)nc21` registered an IC50 in experiment [3] of 6600 nM.

Consider `CCN(CC)CCOc1ccc(Nc2ncc3ccc(=O)n(C4CC5CCC4C5)c3n2)cc1` (stereo not drawn), for which the 50% inhibitory concentration (IC50) in experiment [1] was 450 nM.

In experiment [1], `COCCn1c(=O)ccc2cnc(Nc3ccccc3)nc21` showed an IC50 of 2860 nM.

`CN1CCN(c2ccc(Nc3ncc4ccc(=O)n(CC(O)CO)c4n3)cc2)CC1` (stereo not drawn) showed an IC50 in experiment [1] of 1650 nM.

`CCn1c(=O)ccc2cnc(Nc3ccc(O)c(OC)c3)nc21`: the concentration for half-maximal inhibition (IC50) in experiment [1] was found to be 1820 nM.

Turning to `CC(C)Cn1c(=O)ccc2cnc(Nc3ccccc3)nc21`, the IC50 in experiment [1] amounted to 297 nM. This IC50 is about 6.1-fold lower than that of the compound before.

Consider `O=c1ccc2cnc(Nc3ccc(N4CCC(CCCO)CC4)cc3)nc2n1C1CC2CCC1C2` (stereo not drawn), for which the IC50 with HCT-116 is 213 nM; in experiment [4] it was 165 nM; in experiment [2] it was over 40000 nM; in experiment [3], 8620 nM; in experiment [1], 8 nM; in experiment [5] it was 209 nM.

The compound `CCC(C)n1c(=O)ccc2cnc(Nc3ccccc3)nc21` (stereo not drawn) had an IC50 in experiment [1] of 190 nM.

Regarding `CN1CCN(c2ccc(Nc3ncc4ccc(=O)n(C5CCCCC5)c4n3)cc2)CC1`, the IC50 in experiment [4] was found to be 20 nM; in experiment [3] it was 51 nM; in experiment [1], 4 nM.

`CCn1c(=O)ccc2cnc(Nc3cccc(OC(F)(F)C(F)F)c3)nc21` registered an IC50 in experiment [3] of 44200 nM.

In experiment [3], `CC(C)n1c(=O)ccc2cnc(Nc3ccc(N4CCN(C)CC4)cc3)nc21` registered an IC50 of 70 nM.

The compound `O=c1ccc2cnc(Nc3ccc(N4CCC(CCCO)CC4)cc3)nc2n1C1CCCC1` displayed an IC50 in experiment [1] of 34 nM.

Consider `O=c1ccc2cnc(Nc3ccccc3)nc2n1CC1CCCCC1`, for which, in experiment [1], the IC50 was determined as 13500 nM. This IC50 lies about 400-fold higher than the previous one.

Compound `CCn1c(=O)ccc2cnc(Nc3cccc(OC)c3)nc21` returned an IC50 in experiment [1] of over 40000 nM.

In experiment [1], `CN1CCN(c2ccc(Nc3ncc4ccc(=O)n(-c5ccccc5)c4n3)cc2)CC1` gave an IC50 of 175 nM.

Regarding `CN1CCN(c2ccc(Nc3ncc4ccc(=O)n(C5CC5)c4n3)cc2)CC1`, in experiment [1], inhibition was half-maximal at 140 nM (IC50).

Take `CCn1c(=O)ccc2cnc(NCc3ccccc3)nc21`: in experiment [1], the IC50 was over 40000 nM.

In the case of `CC(C)CCn1c(=O)ccc2cnc(Nc3ccc(N4CCN(C)CC4)cc3)nc21`, the IC50 in experiment [1] is 13 nM.

Regarding `CCn1c(=O)ccc2cnc(Nc3ccccc3)nc21`, the values for the IC50 in experiment [3], in experiment [6] and in experiment [1] were 3295 nM, 21000 nM and 620 nM, respectively.

In turn, `CC(C)CCn1c(=O)ccc2cnc(Nc3ccccc3)nc21` returned an IC50 in experiment [1] of 159 nM. This lies in the sub-micromolar range.

With `CC(C)n1c(=O)ccc2cnc(Nc3ccccc3)nc21`, inhibition in experiment [1] was half-maximal at 145 nM (IC50).

Compound `CCn1c(=O)ccc2cnc(Nc3ccc(OCCOC)cc3)nc21` gave an IC50 in experiment [1] of 2330 nM.

On to `CCOCCn1c(=O)ccc2cnc(Nc3ccccc3)nc21`, for which the IC50 in experiment [1] was found to be 7800 nM.

In experiment [1], `CCN(CC)c1ccc(Nc2ncc3ccc(=O)n(CC)c3n2)cc1` gave an IC50 of 1400 nM.

Turning to `CCn1c(=O)ccc2cnc(Nc3ccc(OCCN(C)C)cc3)nc21`, in experiment [1], the half-maximal inhibitory concentration (IC50) was found to be 330 nM.

Regarding `CCn1c(=O)ccc2cnc(Nc3ccc(OC)c(OC)c3)nc21`, the IC50 in experiment [1] came to 4080 nM.

`CN1CCN(c2ccc(Nc3ncc4ccc(=O)n(C5CCCC5)c4n3)cc2)CC1`: the IC50 in experiment [1] is 9 nM.

In experiment [1], `CN1CCN(c2ccc(Nc3ncc4ccc(=O)n(CCOCc5ccccc5)c4n3)cc2)CC1` displayed an IC50 of 2100 nM.

`CCn1c(=O)ccc2cnc(Nc3ccc(O)cc3)nc21` yielded a concentration for half-maximal inhibition (IC50) in experiment [1] of 585 nM. Against the preceding compound, the IC50 is about 3.6-fold lower.

In the case of `CCn1c(=O)ccc2cnc(Nc3ccc(-n4cccc4)cc3)nc21`, in experiment [1], half-maximal inhibition (IC50) was put at 2750 nM.

In experiment [1], `O=c1ccc2cnc(Nc3ccccc3)nc2n1-c1ccccc1` gave an IC50 of 1670 nM.

In the case of `COCn1c(=O)ccc2cnc(Nc3ccccc3)nc21`, in experiment [1], it took 4150 nM to reach half-maximal inhibition (IC50).

The compound `CCN(CC)CCOc1ccc(Nc2ncc3ccc(=O)n(C4CCCCC4)c3n2)cc1` registered an IC50 in experiment [1] of 11 nM.

For the compound `CCn1c(=O)ccc2cnc(NC(C)C)nc21`, in experiment [1], it took 4320 nM to reach half-maximal inhibition (IC50).

`CCn1c(=O)ccc2cnc(N(C)c3ccccc3)nc21`: in experiment [1], the IC50 was over 40000 nM.

`CCN(CC)CCOc1ccc(Nc2ncc3ccc(=O)n(C4CCCC4)c3n2)cc1`: the IC50 in experiment [1] was 0.7 nM.

In experiment [1], `CCN(CC)CCOc1ccc(Nc2ncc3ccc(=O)n(C4CCCCCC4)c3n2)cc1` yielded a half-maximal inhibitory concentration (IC50) of 4 nM.

Turning to `CCn1c(=O)ccc2cnc(Nc3ccncc3)nc21`, half-maximal inhibition in experiment [1] (IC50) was put at 1170 nM. This IC50 is about 290-fold higher than that of the compound before.

In experiment [1], `CCn1c(=O)ccc2cnc(Nc3ccc(N4CCCCC4)cc3)nc21` showed a half-inhibitory concentration (IC50) of 300 nM.

The values are drawn from ChEMBL document CHEMBL1133535, “Pyrido[2,3-d]pyrimidin-7-one inhibitors of cyclin-dependent kinases” (J Med Chem, 2000).
